Source: patent US20050075315A1, “Antitumor agent” (FUSO PHARMACEUTICAL INDUSTRIES, LTD, priority 2002, published 2005)

What was measured:
Escherichia coli = conditions: on Escherichia coli; cited from earlier work
Caspase-8 = Caspase-8 activity assay; format: cell-based; conditions: 2 ml of BA of 2.5 mg/ml, 48 hrs
From the text: (§1) The DNA Laddering assay, the TUNEL assay and the Caspase assay as described in the examples below are general methods for determining whether a cell arrives at death through an apoptosis route or not. For the DNA Laddering assay, see Shin Apoptosis Jikken-ho (edited by K. Tsujimoto, S. Tone, T. Yamada, 59-66, Yodosya, 1999). For the TUNEL assay, see Shin Apoptosis Jikken-ho (edited by K. Tsujimoto, S. Tone, T. Yamada, 67-74, Yodosya, 1999). For the Caspase assay, see Shin Apoptosis Jikken-ho (edited by K. Tsujimoto, S. Tone, T. Yamada, 198-200, Yodosya, 1999).
(§2) To 1.5×10^6 cells, 2 ml of BA of 2.5 mg/ml for a test sample, the equal amount of physiological saline for a negative control sample, and Arac 1×10^−5M (Kirosaito, Nippon Shinyaku) for a positive control sample were added respectively, each of which was followed by incubating at 37° C. for 48 hrs to recover the cells. Then, the CPP32/Caspase-3, -8 Colorimetric Protease Assay kit (MBL Co.) was applied to the samples. The application was briefly as follows: • 1. […]

[1] = test system: large bowel cancer cell line DLD; assay: tests as in Examples 1, 2 and 3; format: cell-based
Description: (§3) The tests were carried out on a breast cancer cell line (MCF-7, BSMZ), a large bowel cancer cell line (DLD, LOVO), a thyroid gland cancer cell line (SW1736), and a pancreas cancer cell line (PA-1) in the same ways as in Examples 1, 2, and 3. As the result, the cell mortality began with about 1.5 mg/ml of BA to increase in proportion to the BA concentration, same as adhesiveness thereof.

[2] = test system: pancreas cancer cell line PA-1; assay: tests as in Examples 1, 2 and 3; format: cell-based
Description: as §3

[3] = test system: thyroid gland cancer cell line SW1736; assay: tests as in Examples 1, 2 and 3; format: cell-based
Description: as §3

[4] = test system: breast cancer cell line BSMZ; assay: tests as in Examples 1, 2 and 3; format: cell-based
Description: as §3

[5] = test system: large bowel cancer cell line LOVO; assay: tests as in Examples 1, 2 and 3; format: cell-based
Description: as §3

[6] = test system: breast cancer cell line MCF-7; assay: tests as in Examples 1, 2 and 3; format: cell-based
Description: as §3

[7] = test system: STKM (a stomach cancer cell line); assay: DNA Laddering assay; format: cell-based; conditions: 2 ml of BA of 2.5 mg/ml, 48 hrs, FIG. 6
From the text: as §1
(§4) For a cell group capable of being guided to the cell mortality, it was determined that through which route, apoptosis or necrosis, the cell arrived at death. Namely, BA was added to the cell at a certain concentration or more necessary to guide to the cell mortality, and the cell was collected after confirmation of the change in shape. Then, the DNA Laddering assay with gel electrophoresis to investigate the DNA fragmentation and the TUNEL assay with the cell dyeing were carried out.
2 ml of BA of 2.5 mg/ml was added to 1.5×10^6 cells (STKM) followed by incubating at 37° C. for 48 hrs to collect the cells. The collected cells were centrifuged and added in 100 μl of lysis buffer (10 mM EDTA, 50 mM Tris-HCl, pH 8.0, 0.5% SDS, 0.5 mg/ml Proteinase K), followed by incubating at […] for 3 hrs. […]

[8] = test system: stomach cancer cell line (STKM); assay: cell adhesiveness test by the calorimetric assay; format: cell-based; conditions: 37° C. for 48 hrs, OD 600 nm, FIG. 1
From the text: The calorimetric assay as described in the examples below can be employed for assaying the adhesiveness of a cell, and the thymidine incorporate assay can be employed for assaying the mortality of a cell. These two assays are general methods for determining the behavior of a tumor cell. For the colorimetric assay, see Enhancer sequences of DF3 gene regulate expression of the herpes simplex virus thymidine kinase gene and confer sensitivity of human breast cancer cell to ganciclovir: Manome Y, Abe M, Hagen F. M, Fine A. H, and Kufe W. D, Cancer Research 54:5408-5413, 1994. For the thymidine incorporate assay, see Meneki Jikken Sousa-ho II (edited by S. Uda, S. Konda, Y. Honsho, T, Hamaoka, 773-774, Nanko-do, 1995).
(§5) To 1×10^6 cells of a stomach cancer cell line (STKM), BA was added by such proportional concentrations as 1, 1.5, 2.0, 2.5 and 5 mg/ml. An equal amount of the physiological saline was added to prepare a control sample. All the samples were incubated at 37° C. for 48 hrs. The shape of the cell was studied through an inverted microscope. The adhesiveness and the mortality of the cell were measured by the calorimetric assay and the thymidine incorporate assay.
(1) The Cell Adhesiveness Test by the Calorimetric Assay:
100% gulutalaldehyde was added to each of samples by a ¼ the medium amount (250 μl), then left to stand at a room temperature for 15 min. […]

STKM cells = assay: TUNEL assay; format: cell-based; conditions: 2 ml of BA of 2.5 mg/ml, 48 hrs, FIG. 7
From the text: as §1, §4
2 ml of BA of 2.5 mg/ml was added to 1.5×10^5 cells (STKM) on a slide glass, followed by incubating at 37° C. for 48 hrs and fixing with 1% paraformaldehyde in PBS at a room temperature for 10 min. For a control, the equal amount of physiological saline was added. […]

[9] = in body; cited from earlier work
[10] = test system: stomach cancer cell line (STKM) tumor; assay: antitumor effect on STKM tumor in nude mouse in vivo
Description: 1×10^8 cells of a stomach cancer cell line (STKM) were subcutaneously injected in the back of a nude mouse. When a tumor grew to have a diameter of 5 mm or more after 8 weeks, BA was administrated to the tumor or around the tumor by 4 mg/0.5 ml twice a week for 4 weeks. For a control, 0.5 ml of physiological saline was locally injected to the tumor. The tumor diameter was measured. The tumor tissue was taken out and subjected to the H-E dyeing to observe with a microscope.
A stomach cancer cell line (STKM) was implanted in a living body. When a tumor grew to have a diameter of 5 mm or more, BA was administrated by 4 mg/0.5 ml twice a week for 4 weeks. […] The tumor diameter decreased to the ½ or less after the 32 mg administration (4 weeks).
FIGS. 4 and 5 show the images obtained by extracting the tumor after 4 weeks of administration, fixing with 10% formalin, slicing to 3 μm pieces and H-E dyeing. […] The above result confirms that the stomach cancer cell arrived at death in vivo.

Sarmonella typhii = conditions: on Sarmonella typhii; cited from earlier work
[11] = test system: stomach cancer cell line (STKM); assay: cell shape by inverted microscope in vitro; format: cell-based; conditions: BA 2.5 mg/ml, 37° C. for 48 hrs, FIG. 3
Description: as §5
One ml of BA of 2.5 mg/ml was added to 1×10^6 cells followed by incubating at 37° C. for 48 hrs to get the image as shown in FIG. 3. The equal amount of physiological saline was similarly added, followed by incubating in the same way to get the control. […] The nucleus also got remarkably blackened. The above result confirms that a stomach cancer cell arrived at death in vitro.

lung cell line (WI38) = assay: colorimetric assay on a normal cell; format: cell-based; conditions: FIG. 10
Description: (§6) 100% gulutalaldehyde was added to each of samples by a ¼ the medium amount (250 μl), then left to stand at a room temperature for 15 min. After washing, 250 μl of 0.05% Methylene Blue in PBS was added and then left to stand at a room temperature for 15 min. After washing, 250 μl of 0.33N HCl was added, followed by leaving to stand at a room temperature for 15 min and measuring the OD (600 nm).
(§7) In order to confirm that the BA administration effects specifically a cancer cell to arrive at death, the colorimetric assay was carried out on a normal cell, that is, an umbilical cord cell line (Huvec) and a lung cell line (WI38), in the same way as in Example 1. The stomach cancer cell line (STKM) was used for a control.

[12] = test system: umbilical cord cell line (Huvec); assay: colorimetric assay on a normal cell; format: cell-based; conditions: FIG. 10
Description: as §6, §7

Caspase-3 = Caspase-3 activity assay; format: cell-based; conditions: 2 ml of BA of 2.5 mg/ml
From the text: as §1, §2

Staphylococcus aureus = conditions: on Staphylococcus aureus; cited from earlier work

Q: Which phenol coefficient (Escherichia coli) does the source give for `OCc1ccccc1` [BA, Benzyl alcohol] here?
A: 0.6

Q: What about the “Caspase-8 activity compared with positive control (Arac)” value (Caspase-8; FIG. 9) of the same molecule?
A: significantly lower than that of the positive control

Q: What about the “Caspase activity compared with negative control (physiological saline)” value (Caspase-8; FIGS. 8, 9) of the same molecule?
A: almost equal to that of the negative control

Q: What about the “BA concentration at which cell mortality begins to increase (same as adhesiveness)” value [1] of the same molecule?
A: about 1.5 mg/ml

Q: And the “route of cell death” value [1]?
A: did not arrive at death through an apoptosis route, but through a necrosis one

Q: And the “BA concentration at which cell mortality begins to increase (same as adhesiveness)” value [2]?
A: about 1.5 mg/ml

Q: And the “route of cell death” value [2]?
A: did not arrive at death through an apoptosis route, but through a necrosis one

Q: What about the “BA concentration at which cell mortality begins to increase (same as adhesiveness)” value [3] of the same molecule?
A: about 1.5 mg/ml

Q: And the “route of cell death” value [3]?
A: did not arrive at death through an apoptosis route, but through a necrosis one

Q: And the “BA concentration at which cell mortality begins to increase (same as adhesiveness)” value [4]?
A: about 1.5 mg/ml

Q: What about the “route of cell death” value [4] of the same molecule?
A: did not arrive at death through an apoptosis route, but through a necrosis one

Q: What about the “BA concentration at which cell mortality begins to increase (same as adhesiveness)” value [5] of the same molecule?
A: about 1.5 mg/ml

Q: And the “route of cell death” value [5]?
A: did not arrive at death through an apoptosis route, but through a necrosis one

Q: What about the “BA concentration at which cell mortality begins to increase (same as adhesiveness)” value [6] of the same molecule?
A: about 1.5 mg/ml

Q: What about the “route of cell death” value [6] of the same molecule?
A: did not arrive at death through an apoptosis route, but through a necrosis one

Q: And the DNA laddering [7]?
A: No laddering was recognized

Q: And the “BA concentration at which cell adhesiveness begins to decrease” value [8]?
A: about 1.5 mg/ml

Q: What about the “Digoxigenin dyeing in the nucleus (TUNEL)” value (STKM cells) of the same molecule?
A: no Digoxigenin dyeing image in the nucleus

Q: What about the metabolism and excretion [9] of the same molecule?
A: converted to benzoic acid in body and excreted as hippuric acid

Q: And the “tumor diameter compared with the control” value ([10]; nude mouse, 4 mg/0.5 ml twice a week to or around the tumor, 16 mg administration (2 weeks))?
A: contracted in diameter compared with the control

Q: What about the tumor diameter decrease ([10]; nude mouse, 4 mg/0.5 ml twice a week to or around the tumor, after the 32 mg administration (4 weeks)) of the same molecule?
A: ½

Q: And the “H-E dyed tumor tissue image” value ([10]; tumor extracted after 4 weeks of administration, FIG. 5)?
A: cells were scattered sparsely with the swollen cytoplasm, appearance of the inclusion bodies and contraction of the nucleus

Q: And the phenol coefficient (Sarmonella typhii)?
A: 0.4

Q: What about the cell shape [11] of the same molecule?
A: cell shape changed from a spindle to a circle and got swollen

Q: What about the “resistance to BA compared with Huvec” value (lung cell line (WI38)) of the same molecule?
A: more resistant to BA than the Huvec

Q: What about the “cell death effect compared to STKM” value (lung cell line (WI38); colorimetric assay) of the same molecule?
A: lower effect compared to the STKM

Q: And the “cell death effect compared to STKM” value [12]?
A: lower effect compared to the STKM

Q: And the Caspase-3 activity (Caspase-3; 37° C. for 48 hrs, FIG. 8)?
A: 45.4 RFI/well/Hr

Q: What about the “Caspase-3 activity compared with positive control (Arac)” value (Caspase-3; 48 hrs, p<0.001) of the same molecule?
A: significantly lower than that of the positive control

Q: What about the phenol coefficient (Staphylococcus aureus) of the same molecule?
A: 0.5
